Source: patent CN101993370A, “蓝萼甲素酸酯衍生物及其制备方法和应用” (SHANGHAI JINHAO PHARMACEUTICAL DEVELOPMENT Co Ltd, priority 2009, dated 2011)

How the values were obtained:
[1] = in vivo and in vitro; cited from earlier work
[2] = test system: Lewis lung cancer [Lewis肺癌]; conditions: solid tumor; cited from earlier work
[3] = test system: 5180 solid type [5180实体型]; conditions: cited from earlier work
HCA solid type [HCA实体型] = conditions: cited from earlier work
[4] = test system: 5180 ascites type [5180腹水型]; conditions: mice bearing 5180 ascites type; cited from earlier work
[5] = test system: HCA ascites type [HCA腹水型]; conditions: mice bearing HCA ascites type; cited from earlier work
[6] = cited from earlier work
[7] = in vivo; cited from earlier work
[8] = cited from earlier work; remark: listed apart in the source
[9] = cited from earlier work; remark: listed apart in the source
[10] = test system: lung cancer A549 tumor cells [肺癌A549肿瘤细胞]; experiment: MTT assay, A549 lung cancer tumor cells (Example 33); format: cell-based; conditions: 48 h, positive control

| Structure (SMILES) | antitumor effect [1] | antitumor spectrum [1] | dose dependence of antitumor effect [1] | inhibition of tumor growth [2] | inhibition of tumor growth [3] | inhibition of tumor growth (HCA solid type [HCA实体型]) | life prolongation rate [4] | life prolongation rate [5] | solubility in nonpolar solvents ([6]; chloroform and other nonpolar solvents) | solubility in water ([6]; water) | elimination [7] | half-life [7] | anticancer effect in vitro [8] | requirement for efficacy in vivo [9] | A value (490nm) ([10]; 0.01l/ml) | inhibition rate ([10]; 0.01l/ml) | A value (490nm) ([10]; 0.1μl/ml) | inhibition rate ([10]; 0.1μl/ml) | A value (490nm) ([10]; 1μl/ml) | inhibition rate ([10]; 1μl/ml) |
| --- | --- | --- | --- | --- | --- | --- | --- | --- | --- | --- | --- | --- | --- | --- | --- | --- | --- | --- | --- | --- |
| C=C1C(=O)[C@@]23[C@H](O)C[C@@H]4C(C)(C)C(=O)CC[C@@]4(C)[C@@H]2CC[C@@H]1[C@H]3O [蓝萼甲素] | 较强的抗肿瘤作用 | 抗瘤谱较广 | 呈剂量依赖性 | 能抑制 | 能抑制 | 能抑制 | 明显增加 | 明显增加 | 易溶于氯仿等非极性溶剂 | 在水中不溶 | 药物在体内消除很快 | 半衰期短 | 明显的抗癌作用 | 需大剂量长时间用药才能产生药效 |  |  |  |  |  |  |
| COc1cccc2c1C(=O)c1c(O)c3c(c(O)c1C2=O)C[C@@](O)(C(=O)CO)C[C@@H]3O[C@H]1C[C@H](N)[C@H](O)[C@H](C)O1 [阿霉素] |  |  |  |  |  |  |  |  |  |  |  |  |  |  | 0.452 ± 0.057 | 59.46% | 0.406 ± 0.075 | 73.31% | 0.370 ± 0.087 | 81.21% |
